{
  "source": "patent US20110021517A1",
  "about": "“ANTITUMOR COMBINATION COMPRISING A MORPHOLINYL ANTHRACYCLINE DERIVATIVE AND DEMETHYLATING AGENTS” (NERVIANO MEDICAL SCIENCES S.R.L., priority 2008, published 2011)",
  "key": {"[1]": {"tested_on": "L1210 cells", "assay": "Cytotoxic effect of nemorubicin on L1210 cells with or without pre-treatment with 5-aza-2′-deoxycytidine (cell counting, Coulter Counter)", "format": "cell-based, murine", "details": "for IC50: 24 h nemorubicin treatment, read-out: IC50 (dose inhibiting 50% cell growth)", "description": "(§1) The effect of 5-aza-2′-deoxycytidine on the cytotoxic activity of morpholinyl anthracycline derivative (nemorubicin) was tested on a murine leukaemia cell line (L1210 cells). Cells were grown in RPMI 1640 medium supplemented with 10% foetal calf serum. Exponentially growing cells were seeded and exposed to 5-aza-2′-deoxycytidine immediately after seeding for 6 days, so as to allow efficient demethylation of the CpG islands. […] Six days following 5-aza-2′-deoxycytidine treatment, cells were diluted and treated with different concentrations of nemorubicin (50, 100, 200 and 500 nM) in comparison with cells not pretreated with the demethylating agent 5-aza-2′-deoxycytidine. In vitro drug sensitivity was determined by counting surviving cells by a Coulter Counter apparatus. The antiproliferative activity of the drug was evaluated after 24 h treatment and calculated from dose-response curves and expressed as dose inhibiting 50% cell growth (IC50). IC50 values were calculated from two-three independent experiments each consisting of at least three replicates. Combination indices (CI) were calculated using a computer program for multiple drug effect analysis based on the equation of Chou-Talalay (Adv Enzyme Regul 1984; 22:27-55) for mutually non-exclusive drugs. CI values <0.3-0.8 are indicative of synergism, 0.8-1.2 are indicative of additivity, […] are indicative of antagonism."}, "[2]": {"tested_on": "L1210/MMRDX cells", "assay": "Cytotoxic effect of nemorubicin on nemorubicin-resistant L1210/MMRDX cells with or without pre-treatment with 5-aza-2′-deoxycytidine", "format": "cell-based, murine", "details": "for IC50: 24 h nemorubicin treatment, read-out: IC50 (dose inhibiting 50% cell growth)", "description": "as §1\nThe effect of 5-aza-2′-deoxycytidine on the cytotoxic activity of nemorubicin was tested in comparison on L1210 cells and on the strain resistant to nemorubicin (L1210/MMRDX) (Geroni C. et al, Br J Cancer 9:315-19, 1994). Cells were grown in RPMI 1640 medium supplemented with 10% foetal calf serum. Exponentially growing cells were seeded and exposed to 5-aza-2′-deoxycytidine and nemorubicin as reported here above. In vitro drug sensitivity was determined by counting surviving cells by a Coulter Counter apparatus. The antiproliferative activity of the drug was evaluated after 24 h treatment and calculated from dose-response curves and expressed as IC50. IC50 values were calculated from two-three independent experiments each consisting of at least three replicates. Combination indices (CI) were calculated as described above."}},
  "note": "Like-named read-outs stand apart in the source and are kept apart here.",
  "data": [
    {"substance": "(8S-cis, 2″S)-7,8,9,10-tetrahydro-6,8,11-trihydroxy-8-(hydroxyacetyl)-1-methoxy-10-{[2,3,6-trideoxy-3-(2-methoxy-4-morpholinyl)-α-L-lyxo-hexopyranosyl]oxy}-5,12-naphthacenedione [nemorubicin]", "values": [
      {"measurement": "IC50", "setting": "[1]; L1210 cells pretreated with 5-aza-2′-deoxycytidine for 6 days", "result": 130, "unit": "nM"},
      {"measurement": "IC50", "setting": "[1]; L1210 cells untreated (no 5-aza-2′-deoxycytidine pretreatment)", "result": 210, "unit": "nM"},
      {"measurement": "Combination effect based on CI value (in words)", "setting": "[1]; combination of nemorubicin and 5-aza-2′-deoxycytidine, L1210 cells", "result": "synergistic effect"},
      {"measurement": "CI (combination index, Chou-Talalay)", "setting": "[1]; nemorubicin combined with 5-aza-2′-deoxycytidine pretreatment, L1210 cells", "result": 0.14},
      {"measurement": "IC50", "setting": "[2]; L1210/MMRDX cells pretreated with 5-aza-2′-deoxycytidine", "result": 140, "unit": "nM"},
      {"measurement": "IC50", "setting": "[2]; L1210/MMRDX cells untreated (no 5-aza-2′-deoxycytidine pretreatment)", "result": 480, "unit": "nM"},
      {"measurement": "Combination effect based on CI value (in words)", "setting": "[2]; combination of nemorubicin and 5-aza-2′-deoxycytidine, L1210/MMRDX cells", "result": "strong synergistic effect"},
      {"measurement": "CI (combination index, Chou-Talalay)", "setting": "[2]; nemorubicin combined with 5-aza-2′-deoxycytidine pretreatment, L1210/MMRDX cells", "result": 0.06}
    ]}
  ]
}
